Biological target: T1, human β-Secretase (Homo sapiens, UniProt P56817)
T1 construct: The soluble part of the human β-Secretase (AA 1-AA 460) was cloned; Fc domain of IgG1 (C); made in house
Experiment: TR-FRET Assay
Assay type: biochemical
Description: The enzyme used in the IGEN Cleavage-, Fluorescent-, TR-FRET- and the BiaCore assay is described as follows:
The soluble part of the human β-Secretase (AA 1-AA 460) was cloned into the ASP2-Fc10-1-IRES-GFP-neoK mammalian expression vector. The gene was fused to the Fc domain of IgG1 (affinity tag) and stably cloned into HEK 293 cells. Purified sBACE-Fc is stored in Tris buffer, pH 9.2 and has a purity of 95%.
Dilute the enzyme (truncated form) to 6 μg/mL (stock 1.3 mg/mL) and the substrate (Europium)CEVNLDAEFK(Qsy7) to 200 nM (stock 60 μM) in reaction buffer (NaAcetate, chaps, triton x-100, EDTA pH4.5). The Biomek FX is used for all liquid handling and the enzyme and substrate solutions are kept on ice until they are placed in Biomek FX. Enzyme (9 μl) is added to the plate then 1 μl of compound in dimethylsulphoxide is added, mixed and pre-incubated for 10 minutes. Substrate (10 μl) is then added, mixed and the reaction proceeds in the dark for 15 minutes at room temperature. The reaction is stopped with the addition of Stop solution ([…] pH 9). The fluorescence of the product is measured on a Victor II plate reader with an excitation wavelength of 340 nm and an emission wavelength of 615 nm. The assay is done in a Costar 384 well round bottom, low volume, non-binding surface (Corning #3676). The final concentration of the enzyme is 0.3 nM; the final concentration of substrate is 100 nM (Km of ˜250 nM). The dimethylsulphoxide control defines the 100% activity level and 0% activity is defined by only addition of the peptide substrate.

T1 sequence (P56817 22-460): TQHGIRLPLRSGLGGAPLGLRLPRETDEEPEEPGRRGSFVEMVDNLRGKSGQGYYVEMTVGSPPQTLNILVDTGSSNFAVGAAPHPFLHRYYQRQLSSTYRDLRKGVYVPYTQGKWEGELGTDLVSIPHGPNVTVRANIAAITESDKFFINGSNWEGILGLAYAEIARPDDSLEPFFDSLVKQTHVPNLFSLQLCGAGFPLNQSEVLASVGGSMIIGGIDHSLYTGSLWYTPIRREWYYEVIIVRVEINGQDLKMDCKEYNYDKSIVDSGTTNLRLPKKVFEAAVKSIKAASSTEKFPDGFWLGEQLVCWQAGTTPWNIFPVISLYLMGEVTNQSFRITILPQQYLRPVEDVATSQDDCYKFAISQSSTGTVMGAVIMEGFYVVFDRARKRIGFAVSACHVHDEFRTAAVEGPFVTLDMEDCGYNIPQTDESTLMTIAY

| IC50 | SMILES |
| --- | --- |
| 4.47 µM | Cc1nc(NC(=N)N)sc1-c1cccc(NC(=O)c2ccc(-c3csnn3)cc2)c1 [Example 17, N-[3-(2-{[Amino(imino)methyl]amino}-4-methyl-1,3-thiazol-5-yl)phenyl]-4-(1,2,3-thiadiazol-4-yl)benzamide] |
| 6.03 µM | CCc1ccc2c(Cl)c(C(=O)Nc3cccc(-c4sc(NC(=N)N)nc4C)c3)sc2c1 [Example 18, N-[3-(2-{[Amino(imino)methyl]amino}-4-methyl-1,3-thiazol-5-yl)phenyl]-3-chloro-6-ethyl-1-benzothiophene-2-carboxamide] |
| 5.01 µM | CCc1nc(NC(=N)N)sc1-c1ccc(NCC2CCN(C(=O)OCc3ccccc3)CC2)cc1 [Example 20, Benzyl 4-({[4-(2-{[amino(imino)methyl]amino}-4-ethyl-1,3-thiazol-5-yl)phenyl]amino}methyl)piperidine-1-carboxylate] |

From patent publication US20100298340A1, “Thiazol-Guanidine Derivatives Useful As A (Beta)-Related Pathologies” (AstraZeneca AB, priority 2006, published 2010)
